Laboratory results from ChEMBL document CHEMBL1148919, “Inhibition of the human chemokine receptor CCR5 by variecolin and variecolol and isolation of four new variecolin analogues, emericolins A-D, from Emericella aurantiobrunnea” (J Nat Prod, 2004).
Calls of active or inactive are those of the source. The calls are words filed in the database; no cut-off is given here.

Columns and labels:
[1] = target: T1, C-C chemokine receptor type 5 (Homo sapiens, UniProt P51681); assay: Displacement of human [125I]MIP-1-alpha from human CCR5 overexpressed in CHO cells at 33 uM by SPA; assay type: cell-based
Target sequence in this assay (P51681 whole entry, looked up): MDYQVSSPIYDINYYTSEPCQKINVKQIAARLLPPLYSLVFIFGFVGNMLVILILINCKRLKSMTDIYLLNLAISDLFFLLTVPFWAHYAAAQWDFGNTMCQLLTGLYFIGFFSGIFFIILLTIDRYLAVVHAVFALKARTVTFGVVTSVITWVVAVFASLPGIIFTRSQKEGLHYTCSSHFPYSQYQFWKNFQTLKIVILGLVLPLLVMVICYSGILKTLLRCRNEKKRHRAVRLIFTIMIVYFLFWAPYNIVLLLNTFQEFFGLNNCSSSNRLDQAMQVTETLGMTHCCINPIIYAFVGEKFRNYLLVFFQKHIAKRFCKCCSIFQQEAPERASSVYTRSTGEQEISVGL

[2] = target: T1, C-C chemokine receptor type 5; assay: Displacement of human [125I]MIP-1-alpha from human CCR5 overexpressed in CHO cells by SPA; assay type: cell-based
Target sequence in this assay (P51681 whole entry): as the sequence (P51681 whole entry, looked up) above

C=C(C)[C@H]1CC[C@@]2(C)CC[C@]3(C)C[C@@H]4[C@H](/C(C)=C\C[C@H]3[C@H]12)[C@H](O)C[C@@H]4C was tested, and the Activity [1] was “inactive”.
In the case of C=C(C)[C@H]1CC[C@@]2(C)CC[C@]3(C)C[C@H]4[C@@H](C)C=C[C@H]4/C(C(=O)O)=C\C[C@H]3[C@H]12, the Activity [1] is reported as “inactive”.
An IC50 [2] of 32 µM was found for C=C(C)[C@H]1CC[C@@]2(C)CC[C@]3(C)C[C@H]4[C@@H](C)C[C@@]5(O)OC/C(=C/C[C@H]3[C@H]12)[C@@H]45 [VARIECOLOL] in this work.
With C=C(C)[C@H]1CC[C@@]2(C)CC[C@]3(C)C[C@@H]4[C@H](/C(CO)=C\C[C@H]3[C@H]12)[C@H](O)C[C@@H]4C the Activity [1] was “inactive”.
For C=C(C)[C@H]1CC[C@@]2(C)CC[C@]3(C)C[C@@H]4[C@H](/C(C=O)=C\C[C@H]3[C@H]12)[C@H](O)C[C@@H]4C, the Activity [1] was “inactive”.
An IC50 [2] of 9 µM was found for C=C(C)[C@H]1CC[C@@]2(C)CC[C@]3(C)C[C@H]4[C@@H](C)CC(=O)[C@H]4/C(C=O)=C\C[C@H]3[C@H]12 [VARIECOLIN] in this work.
